Measurements as given in the supplement of paper PMC4862054.

Experiments:
Settings in all cases: incubation time: 72 h
[1] = test system: BT-474; assay: normalised response (% of control), CellTox Green; higher = less cell death (100 = DMSO, 0 = benzethonium chloride kill control)
How it was run: (§1)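 Two readouts were taken after 72 h: CellTox Green fluorescence (485/520 nm) first, then CellTiter-Glo luminescence after 10 min at room temperature. Breast cancer cell lines had been seeded as 20 µl suspension into 384-well plates holding compound at 5 concentrations in 10-fold steps across a compound-specific 10,000-fold range. Each value is a normalised signal at a single concentration, with plates scaled to 0.1 % DMSO (100) and a positive kill control (0).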

[2] = test system: BT-549; assay: as above
How it was run: as §1

[3] = test system: CAL-120; assay: as above
How it was run: as §1

[4] = test system: CAL-148; assay: as above
How it was run: as §1

[5] = test system: CAL-51; assay: as above
How it was run: as §1

[6] = test system: CAL-85-1; assay: as above
How it was run: as §1

[7] = test system: DU-4475; assay: as above
How it was run: as §1

[8] = test system: HCC1143; assay: as above
How it was run: as §1

[9] = test system: HCC1599; assay: as above
How it was run: as §1

[10] = test system: HCC1937; assay: as above
How it was run: as §1

[11] = test system: HDQ-P1; assay: as above
How it was run: as §1

[12] = test system: Hs578T; assay: as above
How it was run: as §1

[13] = test system: MCF-10A; assay: as above
How it was run: as §1

[14] = test system: MDA-MB-231; assay: as above
How it was run: as §1

[15] = test system: MDA-MB-436; assay: as above
How it was run: as §1

[16] = test system: MDA-MB-453; assay: as above
How it was run: as §1

[17] = test system: MDA-MB-468; assay: as above
How it was run: as §1

[18] = test system: MFM-223; assay: as above
How it was run: as §1

[19] = test system: BT-474; assay: normalised response (% of control), CellTiter-Glo; higher = more viable cells (100 = DMSO, 0 = benzethonium chloride kill control)
How it was run: as §1

[20] = test system: BT-549; assay: as above
How it was run: as §1

[21] = test system: CAL-120; assay: as above
How it was run: as §1

[22] = test system: CAL-148; assay: as above
How it was run: as §1

[23] = test system: CAL-51; assay: as above
How it was run: as §1

[24] = test system: CAL-85-1; assay: as above
How it was run: as §1

[25] = test system: DU-4475; assay: as above
How it was run: as §1

[26] = test system: HCC1143; assay: as above
How it was run: as §1

[27] = test system: HCC1599; assay: as above
How it was run: as §1

[28] = test system: HCC1937; assay: as above
How it was run: as §1

[29] = test system: HDQ-P1; assay: as above
How it was run: as §1

[30] = test system: Hs578T; assay: as above
How it was run: as §1

[31] = test system: MCF-10A; assay: as above
How it was run: as §1

[32] = test system: MDA-MB-231; assay: as above
How it was run: as §1

[33] = test system: MDA-MB-436; assay: as above
How it was run: as §1

[34] = test system: MDA-MB-453; assay: as above
How it was run: as §1

[35] = test system: MDA-MB-468; assay: as above
How it was run: as §1

[36] = test system: MFM-223; assay: as above
How it was run: as §1

[37] = test system: SK-BR-3; assay: as above
How it was run: as §1

SMILES | normalised response [1] | normalised response [2] | normalised response [3] | normalised response [4] | normalised response [5] | normalised response [6] | normalised response [7] | normalised response [8] | normalised response [9] | normalised response [10] | normalised response [11] | normalised response [12] | normalised response [13] | normalised response [14] | normalised response [15] | normalised response [16] | normalised response [17] | normalised response [18] | normalised response [19] | normalised response [20] | normalised response [21] | normalised response [22] | normalised response [23] | normalised response [24] | normalised response [25] | normalised response [26] | normalised response [27] | normalised response [28] | normalised response [29] | normalised response [30] | normalised response [31] | normalised response [32] | normalised response [33] | normalised response [34] | normalised response [35] | normalised response [36] | normalised response [37]
Cc1ccc(F)c(NC(=O)Nc2ccc(-c3cccc4[nH]nc(N)c34)cc2)c1 [Linifanib] (10 nM) | 99.7% | 96.7% | 99.2% | 108% | 109% | 97.2% | 102% | 108% | 111% | 104% | 112% | 87% | 56.1% | 91.7% | 72.8% | 108% | 121% | 108% | 107% | 96.7% | 102% | 112% | 102% | 92.7% | 105% | 107% | 108% | 99.5% | 97.3% | 105% | 110% | 111% | 108% | 97.2% | 106% | 106% | 103%
S=c1[nH]cnc2nc[nH]c12 [Mercaptopurine] (100 nM) | 91.2% | 94.6% | 98.4% | 95.9% | 94.5% | 108% | 98.8% | 91.9% | 98% | 101% | 66.2% | 92.4% | 99.5% | 80.6% | 102% | 103% | 134% | 82.7% | 95.1% | 104% | 92.5% | 81.7% | 96.9% | 90.8% | 96.8% | 104% | 91.3% | 94% | 105% | 96.6% | 94.6% | 101% | 96.1% | 95.5% | 88.4% | 98.5% | 98.3%
Clc1ccc(C(c2ccccc2Cl)C(Cl)Cl)cc1 (configuration not stated) [Mitotane] (100 nM) | 100% | 94.6% | 92% | 101% | 101% | 105% | 97.9% | 92.2% | 100% | 95% | 95.8% | 91.4% | 78.6% | 95.5% | 88.1% | 106% | 120% | 77.9% | 94% | 99.6% | 97.8% | 96.2% | 94.8% | 101% | 97.2% | 100% | 93.7% | 95.4% | 102% | 95.3% | 92.2% | 98.7% | 97.8% | 95.5% | 92.9% | 95.6% | 97.7%
C=CC[C@@H]1/C=C(\C)C[C@H](C)C[C@H](OC)[C@H]2O[C@@](O)(C(=O)C(=O)N3CCCC[C@H]3C(=O)O[C@H](/C(C)=C/[C@@H]3CC[C@@H](O)[C@H](OC)C3)[C@H](C)[C@@H](O)CC1=O)[C@H](C)C[C@@H]2OC [Tacrolimus] (100 nM) | 100% | 104% | 100% | 82% | 91% | 93.4% | 100% | 99.5% | 95.4% | 107% | 69.4% | 95.7% | 57.2% | 104% | 103% | 97.8% | 186% | 101% | 100% | 98.2% | 98.8% | 111% | 77.2% | 94.6% | 101% | 101% | 95.9% | 98% | 97.7% | 96.5% | 102% | 110% | 96.4% | 103% | 93% | 106% | 89.7%
CO[C@H]1C[C@@H]2CC[C@@H](C)[C@@](O)(O2)C(=O)C(=O)N2CCCC[C@H]2C(=O)O[C@H]([C@H](C)C[C@@H]2CC[C@@H](OC(=O)C(C)(CO)CO)[C@H](OC)C2)CC(=O)[C@H](C)/C=C(\C)[C@@H](O)[C@@H](OC)C(=O)[C@H](C)C[C@H](C)/C=C/C=C/C=C/1C [Temsirolimus] (1 nM) | 89.6% | 109% | 102% | 96.7% | 94.9% | 97.9% | 97.5% | 117% | 109% | 118% | 113% | 66.9% | 99.6% | 94.2% | 99.8% | 100% | 135% | 90.2% | 90.8% | 68.4% | 83.4% | 82.5% | 68.3% | 74.8% | 92.3% | 77.4% | 111% | 77.8% | 94.4% | 69.9% | 102% | 98.8% | 87.2% | 88.4% | 56.3% | 79.6% | 68.7%
CC[C@]1(O)C[C@@H]2CN(CCc3c([nH]c4ccccc34)[C@@](C(=O)OC)(c3cc4c(cc3OC)N(C)[C@H]3[C@@](O)(C(=O)OC)[C@H](OC(C)=O)[C@]5(CC)C=CCN6CC[C@]43[C@@H]65)C2)C1 [Vinblastine] (10 nM) | 72.6% | 65.2% | 73.6% | 82.7% | 30.4% | 31.4% | 102% | 92% | 84.7% | 92.3% | 40.4% | 71.2% | 16.4% | -19.5% | 44.7% | 98% | 110% | 69.6% | 58.2% | 39.1% | 51.5% | 70.8% | 58.1% | 29.4% | 96.1% | 48.6% | 70.4% | 71% | 76.1% | 55.4% | 51.6% | 57.8% | 36% | 57.4% | 33.9% | 77.1% | 12.3%
